Experimental data: patent US20200069714A1, “AMINOGLYCOSIDE POTENTIATION FOR TREATMENT OF PULMONARY BACTERIAL INFECTION” (Enbiotix, Inc., priority 2016, published 2020)
“Also recorded” adds a separate entry of the source.

Tests used:
[1] = potentiation in the presence of CF patient sputum; format: cell-based
[2] = test system: PAO1 laboratory strains of Pseudomonas aeruginosa; assay: planktonic stationary phase (PSP) time kill potentiation assay, laboratory strain; format: cell-based
Experimental: (§1) The following examples use an in vitro potentiation assay, termed planktonic stationary phase (PSP) time kill assay. In this assay, bacterial cultures in planktonic stationary phase are used to select for bacterial persisters. Experiments are conducted using the time-kill method (CLSI M26), to evaluate bacterial strains, varying the concentration of aminoglycoside and potentiator. Cultures of persisters are generated by growing the bacteria in lysogeny broth (LB) medium for 16 hours. After 4 hr of exposure to the aminoglycoside plus potentiator combination in M9 minimal medium, cells are enumerated on LB plates.
Tobramycin has been measured at about 50 to 90 μg/ml of tobramycin in the lung epithelial lining after delivery of a 300 mg dose of tobramycin to cystic fibrosis patients by nebulizer. Ruddy J. et al., Sputum Tobramvcin Concentrations in Cystic Fibrosis Patients with Repeated Administration of Inhaled Tobramycin, J. of Aerosol Med. and Pulmon. Drug Del. 26(2):69-75 (2013).

PAO1 strain = assay: potentiation assay in the presence of tobramycin and azithromycin; format: cell-based, Pseudomonas aeruginosa; conditions: 15 mM fumarate
Experimental: as §1
The potentiation effect was tested in the presence of both tobramycin and azithromycin. […] Results are for PAO1 strain.

[3] = potentiation in artificial sputum media; format: cell-based; conditions: 15 mM fumarate; with and without amino acids
Experimental: In the presence of artificial sputum media with and without amino acids, some tolerance is observed, but the potentiation of tobramycin with 15 mM fumarate remains an improvement of several logs (FIG. 9).

[4] = test system: Human Airway Epithelial cells infected with Pseudomonas; conditions: in combination with tobramycin
Experimental: The impact of fumarate on Human Airway Epithelial cells was tested using an LDH assay. See Moreau-Marquis S, Tobramycin and FDA-Approved Iron Chelators Eliminate Pseudomonas aeruginosa Biofilms on Cystic Fibrosis Cells, Am. J. Respir. Cell Mol. Biol. Vol. 41, 305-313 (2009). LDH levels are measured in the medium (Apical and Basolateral fluids) and inside cells. Cytotoxicity can be expressed as: [LDHAP-BL/(LDHPAP-BL+LDHcells)]×100. […] Results are normalized to PAO1 untreated for 100% cytotoxicity. Significance (*) is between strain plus tobramycin and strain plus tobramycin with potentiator.

[5] = test system: tobramycin-sensitive COPD clinical isolates; assay: PSP potentiation assay with COPD clinical isolates; format: cell-based, Pseudomonas aeruginosa; conditions: 15 mM fumarate; early or late stage COPD isolates
naïve bacterial biofilm [6] = assay: colony biofilm assay; format: cell-based; conditions: 15 mM fumarate, naïve cultures
Experimental: (§2) The potentiation effect for tobramycin was tested in two biofilm assays: colony biofilm assay and 96-well plate biofilm assay.

[7] = test system: P. aeruginosa mucoid and non-mucoid CF clinical isolates; assay: colony biofilm assay with CF clinical isolates; format: cell-based; conditions: fumarate with tobramycin
Experimental: as §2

naïve bacterial biofilm [8] = assay: 96-well plate biofilm assay; format: cell-based; conditions: 15 mM fumarate, naïve cultures
Experimental: as §2

[9] = cited from earlier work

Compound	potentiation in the presence of CF sputum [1]	potentiation of tobramycin sensitivity in the persister assay ([2]; 15 mM fumarate, PAO1, 4 hr exposure in M9 minimal medium)	potentiation of tobramycin in the presence of azithromycin (PAO1 strain)	potentiation of tobramycin in artificial sputum media [3]	fumarate concentration with potential to decrease airway inflammation [4]	potentiation of tobramycin action against COPD strains [5]	potentiation of tobramycin in colony biofilm assay (naïve bacterial biofilm [6])	effect on P. aeruginosa in colony biofilms from CF clinical isolates [7]	potentiation of tobramycin in 96-well plate biofilm assay (naïve bacterial biofilm [8])	mean tobramycin concentration in expectorated sputum ([9]; 10 minutes after delivery of 300 mg by nebulizer, CF patients)	tobramycin concentration in the lung epithelial fluid (induced sputum), estimated ([9]; after 300 mg delivered by nebulizer)	tobramycin concentration at which maximum bactericidal activity was observed ([2]; with 15 mM fumarate (Met1))
O=C(O)/C=C/C(=O)O [fumarate]	3 logs	over 5 logs	over 3 logs	several logs	above 7.5 mM	effective to potentiate tobramycin action against all COPD strains tested	potentiates tobramycin action; also recorded: shows potentiation of tobramycin	eradication of P. aeruginosa	potentiates tobramycin action; also recorded: shows potentiation of tobramycin			
NC[C@H]1O[C@H](O[C@H]2[C@H](O)[C@@H](O[C@H]3O[C@H](CO)[C@@H](O)[C@H](N)[C@H]3O)[C@H](N)C[C@@H]2N)[C@H](N)C[C@@H]1O [tobramycin]										1,237 μg/g of sputum	~128 µg/g	16 µg/mL
